Measurements from US12410153B2, “Compounds, compositions and methods” (Avalo Therapeutics, Inc., priority 2014, dated 2025).

Experiment: Polymorph stability (slurry and heating, XRPD)
Type: physicochemical
Details: between room temperature and 121° C.
Experimental: Crystalline Form II of Compound (I) was characterized using X-ray powder diffraction (XRPD) (FIG. 1A). The XRPD pattern corresponds to an anhydrous form denoted as Form II, which is highly crystalline. In addition to Form II, Compound (I) can exist as another anhydrous polymorph, denoted as Form I. The XRPD patterns of these phases are shown in FIG. 1B. A slurry experiment was performed at room temperature by adding approximately equal proportions of the two anhydrous phases to methyl-tert-butyl ether.

Cc1ccc(COC(=O)N2CC[C@H](CNc3ncccn3)[C@H](F)C2)cc1 [Form II, 4-methylbenzyl (3S, 4R)-3-fluoro-4-[(pyrimidin-2-ylamino)methyl] piperidine-1-carboxylate]
thermodynamic stability of polymorph: thermodynamically stable form
